In ChEMBL document CHEMBL1201862, “PubChem BioAssay data set” (2004):
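Method: 48-hour compound exposure of cells in 96-well plates, five concentrations, linear interpolation of endpoints. GI50 is the concentration that inhibits growth by half.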 The source made the active and inactive calls. No stated cut-off is given here; in the data, active = GI50 up to about 1.1 µM and inactive = higher.

Tests used:
Experiment in all cases: NCI-60 cell line screen, 48 h
OVCAR-8 = tested on: OVCAR-8
TK-10 = tested on: TK-10
A498 = tested on: A498
U-251 = tested on: U-251
HCT-116 = tested on: HCT-116
UO-31 = tested on: UO-31
COLO 205 = tested on: COLO 205
SK-OV-3 = tested on: SK-OV-3
MOLT-4 = tested on: MOLT-4
MDA-MB-435 = tested on: MDA-MB-435
KM12 = tested on: KM12
BT-549 = tested on: BT-549
HCT-15 = tested on: HCT-15
M14 = tested on: M14
786-0 = tested on: 786-0
Hs-578T = tested on: Hs-578T
OVCAR-5 = tested on: OVCAR-5
DU-145 = tested on: DU-145
CAKI-1 = tested on: CAKI-1
A549 = tested on: A549

SMILES	GI50 (OVCAR-8)	GI50 (TK-10)	GI50 (A498)	GI50 (U-251)	GI50 (HCT-116)	GI50 (UO-31)	GI50 (COLO 205)	GI50 (SK-OV-3)	GI50 (MOLT-4)	GI50 (MDA-MB-435)	GI50 (KM12)	GI50 (BT-549)	GI50 (HCT-15) [µM]	GI50 (M14)	GI50 (786-0)	GI50 (Hs-578T)	GI50 (OVCAR-5)	GI50 (DU-145)	GI50 (CAKI-1)	GI50 (A549)
CN(C)c1ccc(/C=C2/SC(=S)NC2=O)cc1	> 100 µM (inactive)	21.2 µM (inactive)	> 100 µM (inactive)	61.7 µM (inactive)	33.2 µM (inactive)	> 100 µM (inactive)	> 100 µM (inactive)	29.1 µM (inactive)	> 100 µM (inactive)	> 100 µM (inactive)	50.7 µM (inactive)	> 100 µM (inactive)	> 100	> 100 µM (inactive)	> 100 µM (inactive)	> 100 µM (inactive)	21.9 µM (inactive)	> 100 µM (inactive)	> 100 µM (inactive)	> 100 µM (inactive)
Cc1[nH]c2ncn(/N=C/c3ccccc3O)c(=N)c2c1Cc1ccccc1	> 100 µM (inactive)	56.9 µM (inactive)	36.5 µM (inactive)	19.6 µM (inactive)	43.4 µM (inactive)	43.1 µM (inactive)	> 100 µM (inactive)	> 100 µM (inactive)	30.8 µM (inactive)	18.5 µM (inactive)	30.2 µM (inactive)	37.2 µM (inactive)	46.3	58.6 µM (inactive)	81.8 µM (inactive)	96.2 µM (inactive)	> 100 µM (inactive)	> 100 µM (inactive)	46.1 µM (inactive)	39.4 µM (inactive)
Nc1cc2c(nc3c4ccccc4c(N)cc3[n+]2-c2cccc3ccccc23)c2ccccc12.Nc1cc2c(nc3c4ccccc4ccc3[n+]2-c2cccc3ccccc23)c2ccccc12	0.714 µM (active)	0.893 µM (active)	3.48 µM (inactive)	0.341 µM (active)	1.67 µM (inactive)	2.59 µM (inactive)	1.93 µM (inactive)	4.32 µM (inactive)	0.75 µM (active)	1.45 µM (inactive)	1.31 µM (inactive)	4.11 µM (inactive)	2.97	2 µM (inactive)	1.21 µM (inactive)	1.17 µM (inactive)	7.28 µM (inactive)	3.03 µM (inactive)	3.66 µM (inactive)	1.39 µM (inactive)
NC(=O)Cc1nc2c(O)ncnc2n1C1OC(CO)C(O)C1O (stereo not given)	> 100 µM (inactive)	> 100 µM (inactive)	> 100 µM (inactive)	> 100 µM (inactive)	> 100 µM (inactive)	> 100 µM (inactive)	> 100 µM (inactive)	> 100 µM (inactive)	> 100 µM (inactive)	> 100 µM (inactive)	> 100 µM (inactive)	> 100 µM (inactive)	> 100	> 100 µM (inactive)	> 100 µM (inactive)	> 100 µM (inactive)	> 100 µM (inactive)	> 100 µM (inactive)	> 100 µM (inactive)	> 100 µM (inactive)
O=C(O)c1ccc(NS(=O)(=O)Cc2ccccc2)cc1	> 100 µM (inactive)	> 100 µM (inactive)	> 100 µM (inactive)	> 100 µM (inactive)	> 100 µM (inactive)	> 100 µM (inactive)	> 100 µM (inactive)	> 100 µM (inactive)	> 100 µM (inactive)	> 100 µM (inactive)	> 100 µM (inactive)	> 100 µM (inactive)	> 100	> 100 µM (inactive)	> 100 µM (inactive)	> 100 µM (inactive)	> 100 µM (inactive)	> 100 µM (inactive)	> 100 µM (inactive)	> 100 µM (inactive)
Nc1n[nH]c(N)n1 [GUANAZOLE]	3400 µM (inactive)	> 10000 µM (inactive)	5470 µM (inactive)	3800 µM (inactive)	5980 µM (inactive)	7030 µM (inactive)	> 8990 µM (inactive)	3210 µM (inactive)	3170 µM (inactive)	> 9750 µM (inactive)	8890 µM (inactive)	> 6490 µM (inactive)	7670	3310 µM (inactive)	2580 µM (inactive)	> 10000 µM (inactive)	4980 µM (inactive)	5130 µM (inactive)	3550 µM (inactive)	4420 µM (inactive)
